Laboratory results published in article PMC9699089 (Pathogens, 2022).
Counter-ions that a name gives are not always drawn.

What was measured:
[1] = system: T. brucei brucei AnTat 1.9; test: In vitro antitrypanosomal activity, Alamar Blue assay; format: cell-based, Trypanosoma brucei brucei; conditions: Trypanosoma brucei, slender bloodstream trypomastigotes, AnTat 1.9 strain; mean +/- SD of three independent experiments; read-out: Trypanosoma brucei brucei IC50 Values Trypanos Antat 1.9
Procedure: The effects of the tested compounds on the growth of T. brucei brucei were assessed using an Alamar Blue® assay described by Räz et al. T. brucei brucei AnTat 1.9 ([…], Belgium) was cultured in MEM with Earle's salts, supplemented according to the protocol of Baltz et al. […] All doses were tested in duplicate. Appropriate controls treated with solvents 0.9% NaCl or DMSO or with suramin, pentamidine, eflornithine, and fexinidazole (reference drugs purchased from Sigma Aldrich and Fluorochem, UK) were added to each set of experiments. After 69 h incubation period at 37 °C, 10 μL of the viability marker Alamar Blue (Fisher) was added to each well, and the plates were incubated for 5 h. The plates were read in a PerkinElmer ENSPIRE (Germany) microplate reader using an excitation wavelength of 530 nm and an emission wavelength of 590 nm.

[2] = system: Plasmodium telomeric sequence FPf8T G-quadruplex; test: FRET melting assay, FPf8T; format: binding, Plasmodium falciparum; conditions: compound 2 μM, oligonucleotide 0.2 μM, K+ conditions
Procedure: (§1) These were performed with dual-labeled oligonucleotides mimicking the Plasmodium telomeric sequences FPf1T [FAM-5′(GGGTTTA)3-GGG3′-TAMRA] and FPf8T [FAM-5′(GGGTTCA)3GGG3′-TAMRA], the Trypanosoma 9 and 11 chromosomic sequence FTrypBT (also named FEBR1T) [FAM-5′[…]3′-TAMRA], the human telomeric sequence F21T [FAM-(GGGTTA)3-GGG3′-TAMRA] and the human duplex sequence FdxT [FAM5′-[…]-hexaethyleneglycol-[…]3′-TAMRA] [27, 31, 47]. The oligonucleotides were pre-folded in 10 mM lithium cacodylate buffer (pH 7.2), with 10 mM KCl and 90 mM LiCl (K^+ condition). The FAM emissions were recorded at 516 nm using a 492-nm excitation wavelength in the absence and presence of a single compound as a function of temperature (25 to 95 °C) in 96-well microplates using a Stratagene MX3000P real-time PCR device at a rate of 1 °C∙min-1. Data were normalized between 0 and 1, and the required temperature for half-denaturation of oligonucleotides corresponding to the emission value of 0.5 was taken as the Tm. Each experiment was performed in duplicate with 0.2 µM of labeled oligonucleotide and 2 µM of compound under K^+ condition. For each compound, three independent experiments were carried out.

[3] = system: Trypanosoma 9 and 11 chromosomic sequence FTrypBT (FEBR1T) G-quadruplex; test: FRET melting assay, FtrypBT; format: binding, Trypanosoma brucei brucei; conditions: compound 2 μM, oligonucleotide 0.2 μM, K+ conditions
Procedure: as §1

[4] = system: human duplex sequence FdxT; test: FRET melting assay, duplex control FdxT; format: binding; conditions: compound 2 μM, oligonucleotide 0.2 μM, K+ conditions
Procedure: as §1

[5] = system: Plasmodium falciparum CQ-resistant strain W2; test: In vitro antiplasmodial activity, SYBR Green I fluorescence-based method, strain W2; format: cell-based; conditions: CQ-resistant strain W2, 48 h incubation, mean of three independent experiments, read-out: P. falciparum Strains IC50 Values W2
Procedure: (§2) The in vitro antiplasmodial activities were tested over concentrations ranging from 39 nM to 40 µM against culture-adapted Plasmodium falciparum reference strains 3D7 and W2. […] These two strains are obtained from the collection of the National Museum of Natural History (Paris, France). The parasites were cultivated in RPMI medium (Sigma Aldrich, Lyon, France) supplemented with 0.5% Albumax I (Life Technologies Corporation, Paisley, UK), hypoxanthine (Sigma Aldrich), and gentamicin (Sigma Aldrich) with human erythrocytes and were incubated at 37 °C in a candle jar, as described previously. The P. falciparum drug susceptibility test was carried out in 96-well flat bottom sterile plates in a final volume of 250 µL. After 48 h incubation period with the drugs, quantities of DNA in treated and control cultures of parasites in human erythrocytes were quantified using the SYBR Green I (Sigma Aldrich) fluorescence-based method. Briefly, after incubation, plates were frozen at -20 °C until use. Plates were then thawed for 2 h at room temperature, and 100 µL of each homogenized culture was transferred to a well of a 96-well flat bottom sterile black plate (Nunc, Inc.) that contained 100 µL of the SYBR Green I lysis buffer (2xSYBR Green, 20 mM Tris base pH 7.5, 5 mM EDTA, 0.008% w/v saponin, 0.08% w/v Triton X-100). […] Plates were incubated for 1 h at room temperature and then read on a fluorescence plate reader (Tecan, Austria) using excitation and emission wavelengths of 485 and 535 nm, respectively.

[6] = system: human telomeric sequence F21T G-quadruplex; test: FRET melting assay, F21T; format: binding; conditions: compound 2 μM, oligonucleotide 0.2 μM, K+ conditions
Procedure: as §1

[7] = system: L. donovani (MHOM/IN/00/DEVI) promastigotes; test: In vitro antileishmanial activity on promastigotes, MTT assay; format: cell-based; conditions: Leishmania donovani, 72 h incubation, mean +/- SD of three independent experiments
Procedure: L. donovani (MHOM/IN/00/DEVI) used in this study was provided by the CNR Leishmania (Montpellier, France). The effects of the tested compounds on the growth of L. donovani (MHOM/IN/00/DEVI) promastigotes were assessed by MTT assay. Briefly, promastigotes in log-phase in Schneider’s medium supplemented with 20% fetal calf serum (FCS), 2 mM L-glutamine and antibiotics (100 U/mL penicillin and 100 µg/mL streptomycin), were incubated at an average density of 10^6 parasites/mL in sterile 96-well plates with various concentrations of compounds previously dissolved in DMSO (final concentration less than 0.5% v/v), in duplicate. […] Duplicate assays were performed for each sample. After the 72 h incubation period at 27 °C, parasite metabolic activity was determined. Each well was microscopically examined for precipitate formation. To each well was added 10 µL of 10 mg/mL MTT [3-(4,5-dimethylthiazol-2-yl)-2,5-diphenyltetrazolium bromide)] solution followed by 4 h incubation time. The enzyme reaction was stopped by addition of 100 µL of 50% isopropanol/10% sodium dodecyl sulfate. Plates were vigorously shaken (300 rpm) for 10 min, and the absorbance was measured at 570 nm with 630 nm as reference wavelength in a BIOTEK ELx808 Absorbance Microplate Reader (Agilent Technologies, Les Ulis, France). […] IC50 of the parasite’s growth (half maximal inhibitory concentration or IC50 values) were then calculated from the obtained experimental results using a previously described regression program. IC50 values were calculated from three independent experiments.

[8] = system: Plasmodium falciparum CQ-sensitive strain 3D7; test: In vitro antiplasmodial activity, SYBR Green I fluorescence-based method, strain 3D7; format: cell-based; conditions: CQ-sensitive strain 3D7, 48 h incubation, mean of three independent experiments, read-out: P. falciparum Strains IC50 Values 3D7
Procedure: as §2

[9] = system: Plasmodium telomeric sequence FPf1T G-quadruplex; test: FRET melting assay, FPf1T; format: binding, Plasmodium falciparum; conditions: compound 2 μM, oligonucleotide 0.2 μM, K+ conditions
Procedure: as §1

SMILES | melting point [°C] | other results
c1ccc(-c2cc(CNCCCc3ccncc3)nc3c2ccc2c(-c4ccccc4)cc(CNCCCc4ccncc4)nc23)cc1 (as salt: ammonium) [Compound 1p] | 99 to 101 | –
CN(C)CCCNCc1cc(-c2ccccc2)c2ccc3c(-c4ccccc4)cc(CNCCCN(C)C)nc3c2n1 (as salt: ammonium) [Compound 1b, 2,9-Bis[(3-dimethylaminopropyl)aminomethyl]-4,7-diphenyl-1,10-phenanthroline] | 161 to 163 | –
CSc1ccc(OCc2ncc([N+](=O)[O-])n2C)cc1 [Fexinidazole, reference compound] | – | IC50 [1]: 590 ± 39 nM
c1ccc(-c2cc(CNCCN3CCCCC3)nc3c2ccc2c(-c4ccccc4)cc(CNCCN4CCCCC4)nc23)cc1 (as salt: ammonium) [Compound 1j] | 192 to 194 | –
CN(C)CCNCc1cc(-c2ccccc2)c2ccc3c(-c4ccccc4)cc(CNCCN(C)C)nc3c2n1 (as salt: ammonium) [Compound 1a, 2,9-Bis[(2-dimethylaminoethyl)aminomethyl]-4,7-diphenyl-1,10-phenanthroline] | 179 to 181 | –
c1ccc(-c2cc(CNCCCN3CCCC3)nc3c2ccc2c(-c4ccccc4)cc(CNCCCN4CCCC4)nc23)cc1 (as salt: ammonium) [Compound 1l] | 145 to 147 | –
CN(C)CCCCCNCc1cc(-c2ccccc2)c2ccc3c(-c4ccccc4)cc(CNCCCCCN(C)C)nc3c2n1 (as salt: ammonium) [Compound 1d, 2,9-Bis[(5-dimethylaminopentyl)aminomethyl]-4,7-diphenyl-1,10-phenanthroline] | 119 to 121 | –
Cc1ccc(C(=O)Nc2ccc(S(=O)(=O)O)c3cc(S(=O)(=O)O)cc(S(=O)(=O)O)c23)cc1NC(=O)c1cccc(NC(=O)Nc2cccc(C(=O)Nc3cc(C(=O)Nc4ccc(S(=O)(=O)O)c5cc(S(=O)(=O)O)cc(S(=O)(=O)O)c45)ccc3C)c2)c1 [Suramine, reference compound] | – | IC50 [1]: 30 ± 3 nM
CN1CCN(CCNCc2cc(-c3ccccc3)c3ccc4c(-c5ccccc5)cc(CNCCN5CCN(C)CC5)nc4c3n2)CC1 (as salt: ammonium) [Compound 1e] | 185 to 187 | –
c1ccc(-c2cc(CNCCN3CCOCC3)nc3c2ccc2c(-c4ccccc4)cc(CNCCN4CCOCC4)nc23)cc1 (as salt: ammonium) [Compound 1h] | 194 to 196 | –
c1ccc(-c2cc(CNCCc3ccccn3)nc3c2ccc2c(-c4ccccc4)cc(CNCCc4ccccn4)nc23)cc1 (as salt: ammonium) [Compound 1m] | 165 to 167 | –
c1ccc(-c2cc(CNCCc3cccnc3)nc3c2ccc2c(-c4ccccc4)cc(CNCCc4cccnc4)nc23)cc1 (as salt: ammonium) [Compound 1n] | 164 to 166 | –
CN(C)CCCCNCc1cc(-c2ccccc2)c2ccc3c(-c4ccccc4)cc(CNCCCCN(C)C)nc3c2n1 (as salt: ammonium) [Compound 1c, 2,9-Bis[(4-dimethylaminobutyl)aminomethyl]-4,7-diphenyl-1,10-phenanthroline] | 111 to 113 | –
CN(C)CCNCc1cc(-c2ccccc2)c2ccc3c(-c4ccccc4)cc(CNCCN(C)C)nc3c2n1 [Compound 1a, 2,9-Bis[(2-dimethylaminoethyl)aminomethyl]-4,7-diphenyl-1,10-phenanthroline] | – | ΔTm FPf8T [2]: 1.6 °C; ΔTm FtrypBT [3]: 1.9 °C; ΔTm FdxT [4]: −0.3 °C; IC50 [5]: 1000 ± 340 nM; ΔTm F21T [6]: 1.8 °C; IC50 [1]: 670 ± 30 nM; IC50 [7]: > 12500 nM; IC50 [8]: 1800 ± 670 nM; ΔTm FPf1T [9]: 1.8 °C
c1ccc(-c2cc(CNCCCN3CCCCC3)nc3c2ccc2c(-c4ccccc4)cc(CNCCCN4CCCCC4)nc23)cc1 (as salt: ammonium) [Compound 1k] | 141 to 143 | –
c1ccc(-c2cc(CNCCc3ccncc3)nc3c2ccc2c(-c4ccccc4)cc(CNCCc4ccncc4)nc23)cc1 (as salt: ammonium) [Compound 1o] | 147 to 149 | –
C[C@@H]1[C@H](O)[C@@H](C)/C=C/C=C/C=C/C=C/C=C/C=C/C=C/[C@H](O[C@@H]2O[C@H](C)[C@@H](O)[C@H](N)[C@@H]2O)C[C@@H]2O[C@](O)(C[C@@H](O)C[C@@H](O)[C@H](O)CC[C@@H](O)C[C@@H](O)CC(=O)O[C@H]1C)C[C@H](O)[C@H]2C(=O)O [Amphotericin B, reference compound] | – | IC50 [7]: 100 ± 40 nM
CN1CCN(CCCCNCc2cc(-c3ccccc3)c3ccc4c(-c5ccccc5)cc(CNCCCCN5CCN(C)CC5)nc4c3n2)CC1 (as salt: ammonium) [Compound 1g] | 207 to 209 | –
CN1CCN(CCCNCc2cc(-c3ccccc3)c3ccc4c(-c5ccccc5)cc(CNCCCN5CCN(C)CC5)nc4c3n2)CC1 (as salt: ammonium) [Compound 1f] | 205 to 207 | –
c1ccc(-c2cc(CNCCCN3CCOCC3)nc3c2ccc2c(-c4ccccc4)cc(CNCCCN4CCOCC4)nc23)cc1 (as salt: ammonium) [Compound 1i] | 174 to 176 | –
